Values of other authors as cited in patent US8575191B2, “Methods for treatment of non-small cell lung cancer” (priority 2010, dated 2013).

Test system: NSCLC

What does the source list for `C#Cc1cccc(Nc2ncnc3cc(OCCOC)c(OCCOC)cc23)c1` [erlotinib]?
survival HR compared to placebo (adenocarcinoma): 0.8; response rate (unselected NSCLC patients previously treated with chemotherapy): 9%
